# Results: patent US20260242419A1, “A CYCLIC PEPTIDE FOR TRAPPING INTERLEUKIN-1 BETA” (Merck Sharp & Dohme LLC, priority 2023, published 2026)
# pIC50: −log10 of the molar value. Like-named read-outs stand apart in the source and are kept apart here. Starred links: 1 amine or outer side, 2 acyl side, 3 side chain; linkers in the order of their positions; H or OH if unused. Non-standard residues stand in square brackets, D forms with d. Residues, ends and D or L forms follow the SMILES beside them. *: point of attachment. Phe(4-(5-CO2H-2-pyrimidyl)) = N[C@@H](Cc1ccc(-c2ncc(C(=O)O)cn2)cc1)C(=O)O; dPro(4R-(4-pyridylmethyl)) = O=C(O)[C@H]1C[C@@H](Cc2ccncc2)CN1; Trp(βS-Me,4-F) = C[C@@H](c1c[nH]c2cccc(F)c12)[C@H](N)C(=O)O; Bip(4'-CONH2) = NC(=O)c1ccc(-c2ccc(C[C@H](N)C(=O)O)cc2)cc1; Bip(4'-COOH) = N[C@@H](Cc1ccc(-c2ccc(C(=O)O)cc2)cc1)C(=O)O; X8 = O=C([C@H]1[C@@H](Cc2ccc(-c3ccccn3)cc2)CCN1[*:1])[*:2]; Ala(1-bicyclo(1.1.1)pentyl) = N[C@@H](CC12CC(C1)C2)C(=O)O; X37 = CC(=O)N1CCN(c2ccc(C[C@H](N[*:1])C(=O)[*:2])cn2)CC1; dPro(4R-Bzl(4-F)) = O=C(O)[C@H]1C[C@@H](Cc2ccc(F)cc2)CN1; dPro(3S-(4-F-Bn)) = O=C(O)[C@@H]1NCC[C@@H]1Cc1ccc(F)cc1; Phe(2-Cl,4-COOH) = N[C@@H](Cc1ccc(C(=O)O)cc1Cl)C(=O)O; 1Nal(3S-Me) = C[C@@H](c1cccc2ccccc12)[C@H](N)C(=O)O; X4 = O=C([C@H]1[C@@H](Cc2ccncc2)CCN1[*:1])[*:2]; Ala(pyrimidin-5-yl) = N[C@@H](Cc1cncnc1)C(=O)O; Phe(4-COOH) = N[C@@H](Cc1ccc(C(=O)O)cc1)C(=O)O; Pro(cis-4-F) = O=C(O)[C@@H]1C[C@H](F)CN1; Ala(4-THP) = N[C@@H](CC1CCOCC1)C(=O)O; cisHyp = O=C(O)[C@@H]1C[C@H](O)CN1; d(αMeD) = C[C@@](N)(CC(=O)O)C(=O)O; 4Pal = N[C@@H](Cc1ccncc1)C(=O)O; aThr = C[C@H](O)[C@H](N)C(=O)O; d(αMeS) = C[C@@](N)(CO)C(=O)O; Cba = N[C@@H](CC1CCC1)C(=O)O; Dab = NCC[C@H](N)C(=O)O; Aib = CC(C)(N)C(=O)O; Bn = c1ccc(C*)cc1
# Biological target: T1, IL-1β (Homo sapiens, UniProt P01584)
# T1 construct: purchased BioLegend 579404
# T1 sequence (P01584 117-269): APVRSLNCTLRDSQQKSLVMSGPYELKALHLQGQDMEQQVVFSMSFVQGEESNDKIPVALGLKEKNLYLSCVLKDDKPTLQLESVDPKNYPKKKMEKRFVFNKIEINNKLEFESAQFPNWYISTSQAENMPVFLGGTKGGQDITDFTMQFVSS
# Test: IL-6 assay in MRC5 cells: inhibition of IL-1β induced IL-6 secretion (AlphaLISA)
# Format: cell-based
# Conditions: inhibition of IL-1β induced IL-6 secretion in MRC5 cells, read-out: MRC5 IC50
# Procedure, shortened: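 Compound was pre-incubated 1 h at ambient temperature with recombinant human IL-1β at 2λ EC80 before adding human lung fibroblast MRC5 cells (3000/well) in EMEM with 0.025% BSA. After overnight culture at 37 °C, 5% CO2, secreted IL-6 in conditioned medium was measured by AlphaLISA; IC50 from 4-parameter logistic fits.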
# [1] = compound pre-incubated 1 hour with recombinant human IL-1β
Structure (SMILES),pIC50 [1],pIC50
"C[C@@H](OCc1ccccc1)[C@@H]1NC(=O)[C@@](C)(CC(=O)O)NC(=O)[C@H](Cc2c[nH]c3ccccc23)NC(=O)[C@H](CO)NC(=O)C(C)(C)NC(=O)[C@H]([C@@H](C)c2c[nH]c3cccc(F)c23)NC(=O)[C@@H]2C[C@H](F)CN2C(=O)CNC(=O)[C@H](Cc2ccc(C(=O)O)cc2)NC(=O)[C@H](Cc2ccncc2)NC(=O)[C@H](Cc2ccc(-c3ccc(C(=O)O)cc3)cc2)NC(=O)[C@H]2[C@@H](Cc3ccncc3)CCN2C(=O)CNC(=O)[C@H](CCN)NC(=O)[C@H](CCC(N)=O)NC1=O [Example 229] (cyclo([Bip(4'-COOH)][4Pal][Phe(4-COOH)]G[Pro(cis-4-F)][Trp(βS-Me,4-F)][Aib]SW[d(αMeD)]T(Bn)Q[Dab]G[X4]))",10.64,
"CC(=O)N1CCN(c2ccc(C[C@@H]3NC(=O)[C@H]4C[C@@H](Cc5ccc(F)cc5)CN4C(=O)CNC(=O)[C@H](CCN)NC(=O)[C@H](CCC(N)=O)NC(=O)[C@H](Cc4cncnc4)NC(=O)C(C)(C)NC(=O)[C@H](Cc4c[nH]c5ccccc45)NC(=O)[C@H](CCC(=O)O)NC(=O)C(C)(C)NC(=O)[C@H]([C@@H](C)c4c[nH]c5cccc(F)c45)NC(=O)[C@@H]4C[C@H](F)CN4C(=O)CNC(=O)[C@H](Cc4ccc(C(=O)O)cc4)NC(=O)[C@H](Cc4ccncc4)NC3=O)cn2)CC1 [Example 39] (cyclo([X37][4Pal][Phe(4-COOH)]G[Pro(cis-4-F)][Trp(βS-Me,4-F)][Aib]EW[Aib][Ala(pyrimidin-5-yl)]Q[Dab]G[dPro(4R-Bzl(4-F))]))",,10.20
"C[C@@H](c1c[nH]c2cccc(F)c12)[C@@H]1NC(=O)[C@@H]2C[C@H](F)CN2C(=O)CNC(=O)[C@H](Cc2ccc(C(=O)O)cc2)NC(=O)[C@H](Cc2ccncc2)NC(=O)[C@H](Cc2ccc(-c3ccc(C(=O)O)cc3)cc2)NC(=O)[C@H]2[C@@H](Cc3ccc(-c4ccccn4)cc3)CCN2C(=O)CNC(=O)[C@H](CCN)NC(=O)[C@H](CCC(N)=O)NC(=O)[C@H](Cc2cncnc2)NC(=O)C(C)(C)NC(=O)[C@H](Cc2c[nH]c3ccccc23)NC(=O)[C@H](CCC(=O)O)NC(=O)C(C)(C)NC1=O [Example 61] (cyclo([Bip(4'-COOH)][4Pal][Phe(4-COOH)]G[Pro(cis-4-F)][Trp(βS-Me,4-F)][Aib]EW[Aib][Ala(pyrimidin-5-yl)]Q[Dab]G[X8]))",,10.66
"C[C@@H](c1c[nH]c2cccc(F)c12)[C@@H]1NC(=O)[C@@H]2C[C@H](F)CN2C(=O)CNC(=O)[C@H](Cc2ccc(C(=O)O)cc2)NC(=O)[C@H](CC23CC(C2)C3)NC(=O)[C@H](Cc2ccc(-c3ccc(C(N)=O)cc3)cc2)NC(=O)[C@H]2[C@@H](Cc3ccc(F)cc3)CCN2C(=O)CNC(=O)[C@H](CCN)NC(=O)[C@H](CCC(N)=O)NC(=O)[C@H](CC2CCOCC2)NC(=O)[C@@](C)(CO)NC(=O)[C@H](Cc2c[nH]c3ccccc23)NC(=O)[C@H](CO)NC(=O)C(C)(C)NC1=O [Example 216] (cyclo([Bip(4'-CONH2)][Ala(1-bicyclo(1.1.1)pentyl)][Phe(4-COOH)]G[Pro(cis-4-F)][Trp(βS-Me,4-F)][Aib]SW[d(αMeS)][Ala(4-THP)]Q[Dab]G[dPro(3S-(4-F-Bn))]))",,11.10
"COC[C@@]1(C)NC(=O)[C@H](Cc2c[nH]c3ccccc23)NC(=O)[C@H](CO)NC(=O)C(C)(C)NC(=O)[C@H]([C@@H](C)c2c[nH]c3cccc(F)c23)NC(=O)[C@@H]2C[C@H](F)CN2C(=O)CNC(=O)[C@H](Cc2ccc(C(=O)O)cc2)NC(=O)[C@H](Cc2ccncc2)NC(=O)[C@H](Cc2ccc(-c3ccc(C(=O)O)cc3)cc2)NC(=O)[C@H]2C[C@@H](Cc3ccncc3)CN2C(=O)CNC(=O)[C@H](CCN)NC(=O)[C@H](CCC(N)=O)NC(=O)[C@H]([C@H](C)O)NC1=O [Example 261] (cyclo([Bip(4'-COOH)][4Pal][Phe(4-COOH)]G[Pro(cis-4-F)][Trp(βS-Me,4-F)][Aib]SW[d(αMeS)](Me)[aThr]Q[Dab]G[dPro(4R-(4-pyridylmethyl))]))",10.77,
"C[C@@H](c1c[nH]c2cccc(F)c12)[C@@H]1NC(=O)[C@@H]2C[C@H](F)CN2C(=O)CNC(=O)[C@H](Cc2ccc(C(=O)O)cc2)NC(=O)[C@H](Cc2ccncc2)NC(=O)[C@H](Cc2ccc(-c3ccc(C(=O)O)cc3)cc2)NC(=O)[C@H]2C[C@@H](Cc3ccc(F)cc3)CN2C(=O)CNC(=O)[C@H](CCN)NC(=O)[C@H](CCC(N)=O)NC(=O)[C@H](CC2CCOCC2)NC(=O)C(C)(C)NC(=O)[C@H](Cc2c[nH]c3ccccc23)NC(=O)[C@H](CCC(=O)O)NC(=O)C(C)(C)NC1=O [Example 118] (cyclo([Bip(4'-COOH)][4Pal][Phe(4-COOH)]G[Pro(cis-4-F)][Trp(βS-Me,4-F)][Aib]EW[Aib][Ala(4-THP)]Q[Dab]G[dPro(4R-Bzl(4-F))]))",,10.80
"C[C@@H](c1c[nH]c2cccc(F)c12)[C@@H]1NC(=O)[C@@H]2C[C@H](F)CN2C(=O)CNC(=O)[C@H](Cc2ccc(C(=O)O)cc2)NC(=O)[C@H](CC2CCC2)NC(=O)[C@H](Cc2ccc(-c3ccc(C(=O)O)cc3)cc2)NC(=O)[C@H]2C[C@@H](Cc3ccncc3)CN2C(=O)CNC(=O)[C@H](CCN)NC(=O)[C@H](CCC(N)=O)NC(=O)[C@H](Cc2cncnc2)NC(=O)C(C)(C)NC(=O)[C@H](Cc2c[nH]c3ccccc23)NC(=O)[C@H](CO)NC(=O)C(C)(C)NC1=O [Example 163] (cyclo([Bip(4'-COOH)][Cba][Phe(4-COOH)]G[Pro(cis-4-F)][Trp(βS-Me,4-F)][Aib]SW[Aib][Ala(pyrimidin-5-yl)]Q[Dab]G[dPro(4R-(4-pyridylmethyl))]))",,10.52
"C[C@@H](c1cccc2ccccc12)[C@@H]1NC(=O)[C@@H]2C[C@H](F)CN2C(=O)CNC(=O)[C@H](Cc2ccc(C(=O)O)cc2Cl)NC(=O)[C@H](Cc2ccncc2)NC(=O)[C@H](Cc2ccc(-c3ncc(C(=O)O)cn3)cc2)NC(=O)[C@H]2C[C@@H](Cc3ccncc3)CN2C(=O)CNC(=O)[C@H](CCN)NC(=O)[C@H](CCC(N)=O)NC(=O)[C@H](CC2CCOCC2)NC(=O)[C@@](C)(CC(=O)O)NC(=O)[C@H](Cc2c[nH]c3ccccc23)NC(=O)[C@H](CO)NC(=O)C(C)(C)NC1=O [Example 360] (cyclo([Phe(4-(5-CO2H-2-pyrimidyl))][4Pal][Phe(2-Cl,4-COOH)]G[Pro(cis-4-F)][1Nal(3S-Me)][Aib]SW[d(αMeD)][Ala(4-THP)]Q[Dab]G[dPro(4R-(4-pyridylmethyl))]))",,10.72
"C[C@@H](c1c[nH]c2cccc(F)c12)[C@@H]1NC(=O)[C@@H]2C[C@H](O)CN2C(=O)CNC(=O)[C@H](Cc2ccc(C(=O)O)cc2)NC(=O)[C@H](Cc2ccncc2)NC(=O)[C@H](Cc2ccc(-c3ccc(C(=O)O)cc3)cc2)NC(=O)[C@H]2C[C@@H](Cc3ccncc3)CN2C(=O)CNC(=O)[C@H](CO)NC(=O)[C@H](CCC(N)=O)NC(=O)[C@H](Cc2cncnc2)NC(=O)[C@@](C)(CC(=O)O)NC(=O)[C@H](Cc2c[nH]c3ccccc23)NC(=O)[C@H](CO)NC(=O)C(C)(C)NC1=O [Example 161] (cyclo([Bip(4'-COOH)][4Pal][Phe(4-COOH)]G[cisHyp][Trp(βS-Me,4-F)][Aib]SW[d(αMeD)][Ala(pyrimidin-5-yl)]QSG[dPro(4R-(4-pyridylmethyl))]))",,10.72
